In US20180055032A1, “ODORS FOR PSYLLID TRAPPING, REPELLING AND CONTROL” (The Regents of the University of California, priority 2011, published 2018):
Like-named read-outs stand apart in the source and are kept apart here.

Experiments:
Type in all cases: cell-based, Diaphorina citri
[1] = tested on: neuron 2A (rhinarial plate on flagellomere 2); assay: single-sensillum electrophysiology, odor response of neuron 2A; settings: for odor response (frequency of action potentials during stimulus minus baseline), 2A: Table 1, odor diluted to 1%, 50 μL in cartridge; for response to inhibitory odors, 2A: Table 2, odor diluted to 10^−2, 50 μL in cartridge; on all read-outs here: key: 0, no response; +, >50 spikes/second; ++, >100 spikes/second; +++, >150 spikes/second
[2] = tested on: neuron 6A (rhinarial plate on flagellomere 6); assay: single-sensillum electrophysiology, odor response of neuron 6A; settings: for odor response (frequency of action potentials during stimulus minus baseline), 6A: Table 1, odor diluted to 1%, 50 μL in cartridge; for response to inhibitory odors, 6A: Table 2, odor diluted to 10^−2, 50 μL in cartridge; on response to ultra-prolonged activators, 6A: key: 0, no response; +, >50 spikes/second; ++, >100 spikes/second; +++, >150 spikes/second
[3] = tested on: neuron 2B (rhinarial plate on flagellomere 2); assay: single-sensillum electrophysiology, odor response of neuron 2B; settings: for odor response (frequency of action potentials during stimulus minus baseline), 2B: Table 1, odor diluted to 1%, 50 μL in cartridge; for response to inhibitory odors, 2B: Table 2, odor diluted to 10^−2, 50 μL in cartridge; on response to ultra-prolonged activators, 2B: key: 0, no response; +, >50 spikes/second; ++, >100 spikes/second; +++, >150 spikes/second
[4] = tested on: neuron 7B (rhinarial plate on flagellomere 7); settings: for odor response (frequency of action potentials during stimulus minus baseline), 7B: Table 1, odor diluted to 1%, 50 μL in cartridge
[5] = tested on: neuron 4C (rhinarial plate on flagellomere 4); assay: single-sensillum electrophysiology, odor response of neuron 4C; settings: for odor response (frequency of action potentials during stimulus minus baseline), 4C: Table 1, odor diluted to 1%, 50 μL in cartridge; for response to inhibitory odors, 4C: Table 2, odor diluted to 10^−2, 50 μL in cartridge
[6] = tested on: neuron 6B (rhinarial plate on flagellomere 6); assay: single-sensillum electrophysiology, odor response of neuron 6B; settings: for odor response (frequency of action potentials during stimulus minus baseline), 6B: Table 1, odor diluted to 1%, 50 μL in cartridge; for response to inhibitory odors, 6B: Table 2, odor diluted to 10^−2, 50 μL in cartridge
[7] = tested on: neuron 7C (rhinarial plate on flagellomere 7); assay: single-sensillum electrophysiology, odor response of neuron 7C; settings: for odor response (frequency of action potentials during stimulus minus baseline), 7C: Table 1, odor diluted to 1%, 50 μL in cartridge; for response to inhibitory odors, 7C: Table 2, odor diluted to 10^−2, 50 μL in cartridge
[8] = tested on: neuron 7A (rhinarial plate on flagellomere 7); assay: single-sensillum electrophysiology, odor response of neuron 7A; settings: for odor response (frequency of action potentials during stimulus minus baseline), 7A: Table 1, odor diluted to 1%, 50 μL in cartridge; for response to inhibitory odors, 7A: Table 2, odor diluted to 10^−2, 50 μL in cartridge; on all read-outs here: key: 0, no response; +, >50 spikes/second; ++, >100 spikes/second; +++, >150 spikes/second
[9] = tested on: neuron 2C (rhinarial plate on flagellomere 2); assay: single-sensillum electrophysiology, odor response of neuron 2C; settings: for odor response (frequency of action potentials during stimulus minus baseline), 2C: Table 1, odor diluted to 1%, 50 μL in cartridge; for response to inhibitory odors, 2C: Table 2, odor diluted to 10^−2, 50 μL in cartridge
[10] = tested on: neuron 6C (rhinarial plate on flagellomere 6); assay: single-sensillum electrophysiology, odor response of neuron 6C; settings: for odor response (frequency of action potentials during stimulus minus baseline), 6C: Table 1, odor diluted to 1%, 50 μL in cartridge; for response to inhibitory odors, 6C: Table 2, odor diluted to 10^−2, 50 μL in cartridge
[11] = tested on: neuron 4A (rhinarial plate on flagellomere 4); assay: single-sensillum electrophysiology, odor response of neuron 4A; settings: for odor response (frequency of action potentials during stimulus minus baseline), 4A: Table 1, odor diluted to 1%, 50 μL in cartridge; for response to inhibitory odors, 4A: Table 2, odor diluted to 10^−2, 50 μL in cartridge
[12] = tested on: neuron 4B (rhinarial plate on flagellomere 4); settings: for odor response (frequency of action potentials during stimulus minus baseline), 4B: Table 1, odor diluted to 1%, 50 μL in cartridge
[13] = Table 3, 10^−2 in paraffin oil, 50 μL, odor puff of 0.5 sec
[14] = Table 2, odor diluted to 10^−2, 50 μL in cartridge

## C=C(C)C1CC=C(C)CC1 (single isomer, unassigned; (+)) [(+)-limonene]
[1]
  odor response (frequency of action potentials during stimulus minus baseline), 2A: 0
[2]
  odor response (frequency of action potentials during stimulus minus baseline), 6A: 0
[3]
  odor response (frequency of action potentials during stimulus minus baseline), 2B: 0
[4]
  odor response (frequency of action potentials during stimulus minus baseline), 7B: 0
[5]
  odor response (frequency of action potentials during stimulus minus baseline), 4C: 0
[6]
  odor response (frequency of action potentials during stimulus minus baseline), 6B: + (+, >50 spikes/second)
[7]
  odor response (frequency of action potentials during stimulus minus baseline), 7C: 0
[8]
  odor response (frequency of action potentials during stimulus minus baseline), 7A: 0
[9]
  odor response (frequency of action potentials during stimulus minus baseline), 2C: + (+, >50 spikes/second)
[10]
  odor response (frequency of action potentials during stimulus minus baseline), 6C: 0
[11]
  odor response (frequency of action potentials during stimulus minus baseline), 4A: 0
[12]
  odor response (frequency of action potentials during stimulus minus baseline), 4B: + (+, >50 spikes/second)

## CCCCCCO [1-hexanol]
[1]
  odor response (frequency of action potentials during stimulus minus baseline), 2A: 0
[1]; [13]
  response to ultra-prolonged activators, 2A: 0
[2]
  odor response (frequency of action potentials during stimulus minus baseline), 6A: 0
[2]; [13]
  response to ultra-prolonged activators, 6A: 0
[3]
  odor response (frequency of action potentials during stimulus minus baseline), 2B: 0
[3]; [13]
  response to ultra-prolonged activators, 2B: 0
[4]
  odor response (frequency of action potentials during stimulus minus baseline), 7B: 0
[4]; [13]
  response to ultra-prolonged activators, 7B: 0
[5]
  odor response (frequency of action potentials during stimulus minus baseline), 4C: 0
[5]; [13]
  response to ultra-prolonged activators, 4C: 0
[6]
  odor response (frequency of action potentials during stimulus minus baseline), 6B: + (+, >50 spikes/second)
[6]; [13]
  response to ultra-prolonged activators, 6B: + (+, >50 spikes/second)
[7]
  odor response (frequency of action potentials during stimulus minus baseline), 7C: 0
[7]; [13]
  response to ultra-prolonged activators, 7C: 0
[8]
  odor response (frequency of action potentials during stimulus minus baseline), 7A: 0
[8]; [13]
  response to ultra-prolonged activators, 7A: 0
[9]
  odor response (frequency of action potentials during stimulus minus baseline), 2C: 0
[9]; [13]
  response to ultra-prolonged activators, 2C: 0
[10]
  odor response (frequency of action potentials during stimulus minus baseline), 6C: 0
[10]; [13]
  response to ultra-prolonged activators, 6C: 0
[11]
  odor response (frequency of action potentials during stimulus minus baseline), 4A: 0
[11]; [13]
  response to ultra-prolonged activators, 4A: 0
[12]
  odor response (frequency of action potentials during stimulus minus baseline), 4B: + (+, >50 spikes/second)
[12]; [13]
  response to ultra-prolonged activators, 4B: + (+, >50 spikes/second)

## CC(=O)C(C)=O [2,3-butanedione]
[1]
  response to inhibitory odors, 2A: 0
[2]
  response to inhibitory odors, 6A: 0
[4]; [14]
  response to inhibitory odors, 7B: 0
[5]
  response to inhibitory odors, 4C: 0
[6]
  response to inhibitory odors, 6B: 0
[7]
  response to inhibitory odors, 7C: 0
[8]
  response to inhibitory odors, 7A: 0
[9]
  response to inhibitory odors, 2C: 0
[10]
  response to inhibitory odors, 6C: 0
[11]
  response to inhibitory odors, 4A: 0
[12]; [14]
  response to inhibitory odors, 4B: 0

## CN1CCCCC1 [N-methylpiperidine]
[1]
  response to inhibitory odors, 2A: 0
[2]
  response to inhibitory odors, 6A: 0
[3]
  response to inhibitory odors, 2B: 0
[4]; [14]
  response to inhibitory odors, 7B: 0
[5]
  response to inhibitory odors, 4C: 0
[6]
  response to inhibitory odors, 6B: 0
[8]
  response to inhibitory odors, 7A: 0
[9]
  response to inhibitory odors, 2C: 0
[10]
  response to inhibitory odors, 6C: 0
[11]
  response to inhibitory odors, 4A: 0
[12]; [14]
  response to inhibitory odors, 4B: 0

## CNC [dimethyl amine]
[1]
  response to inhibitory odors, 2A: 0
[2]
  response to inhibitory odors, 6A: 0
[3]
  response to inhibitory odors, 2B: 0
[4]
  response to inhibitory odors, 7B: 0
[5]
  response to inhibitory odors, 4C: 0
[6]
  response to inhibitory odors, 6B: 0
[8]
  response to inhibitory odors, 7A: 0
[9]
  response to inhibitory odors, 2C: 0
[11]
  response to inhibitory odors, 4A: 0
[12]
  response to inhibitory odors, 4B: 0

## CCCCCC(=O)OCC [ethyl hexanoate]
[1]
  response to inhibitory odors, 2A: 0
[2]
  response to inhibitory odors, 6A: 0
[3]
  response to inhibitory odors, 2B: 0
[4]; [14]
  response to inhibitory odors, 7B: 0
[5]
  response to inhibitory odors, 4C: 0
[6]
  response to inhibitory odors, 6B: 0
[8]
  response to inhibitory odors, 7A: 0
[9]
  response to inhibitory odors, 2C: 0
[10]
  response to inhibitory odors, 6C: 0
[11]
  response to inhibitory odors, 4A: 0
[12]; [14]
  response to inhibitory odors, 4B: 0

## CCCCCCCCOC(C)=O [n-octyl acetate]
[1]
  response to inhibitory odors, 2A: 0
[2]
  response to inhibitory odors, 6A: 0
[3]
  response to inhibitory odors, 2B: 0
[4]; [14]
  response to inhibitory odors, 7B: 0
[5]
  response to inhibitory odors, 4C: 0
[6]
  response to inhibitory odors, 6B: 0
[7]
  response to inhibitory odors, 7C: 0
[8]
  response to inhibitory odors, 7A: 0
[9]
  response to inhibitory odors, 2C: 0
[10]
  response to inhibitory odors, 6C: 0
[11]
  response to inhibitory odors, 4A: 0

## CCCCC(=O)O [pentanoic acid]
[1]
  response to inhibitory odors, 2A: 0
[2]
  response to inhibitory odors, 6A: 0
[3]
  response to inhibitory odors, 2B: 0
[5]
  response to inhibitory odors, 4C: 0
[6]
  response to inhibitory odors, 6B: 0
[7]
  response to inhibitory odors, 7C: 0
[8]
  response to inhibitory odors, 7A: 0
[9]
  response to inhibitory odors, 2C: 0
[10]
  response to inhibitory odors, 6C: 0
[11]
  response to inhibitory odors, 4A: 0
[12]; [14]
  response to inhibitory odors, 4B: 0

## C=C(C)C1CC=C(C=O)CC1 (stereo not shown) [perillaldehyde]
[1]
  odor response (frequency of action potentials during stimulus minus baseline), 2A: 0
  response to inhibitory odors, 2A: 0
[2]
  odor response (frequency of action potentials during stimulus minus baseline), 6A: 0
  response to inhibitory odors, 6A: 0
[3]
  odor response (frequency of action potentials during stimulus minus baseline), 2B: 0
  response to inhibitory odors, 2B: 0
[4]
  odor response (frequency of action potentials during stimulus minus baseline), 7B: 0
[4]; [14]
  response to inhibitory odors, 7B: 0
[5]
  odor response (frequency of action potentials during stimulus minus baseline), 4C: 0
  response to inhibitory odors, 4C: 0
[6]
  odor response (frequency of action potentials during stimulus minus baseline), 6B: + (+, >50 spikes/second)
  response to inhibitory odors, 6B: 0
[7]
  odor response (frequency of action potentials during stimulus minus baseline), 7C: 0
  response to inhibitory odors, 7C: 0
[8]
  odor response (frequency of action potentials during stimulus minus baseline), 7A: 0
  response to inhibitory odors, 7A: 0
[10]
  odor response (frequency of action potentials during stimulus minus baseline), 6C: 0
  response to inhibitory odors, 6C: 0
[11]
  odor response (frequency of action potentials during stimulus minus baseline), 4A: 0
  response to inhibitory odors, 4A: 0
[12]
  odor response (frequency of action potentials during stimulus minus baseline), 4B: + (+, >50 spikes/second)
[12]; [14]
  response to inhibitory odors, 4B: 0

## Cl.Cl.NCCCCN [putrescine dihydrochloride]
[1]
  response to inhibitory odors, 2A: 0
[2]
  response to inhibitory odors, 6A: 0
[4]
  response to inhibitory odors, 7B: 0
[5]
  response to inhibitory odors, 4C: 0
[6]
  response to inhibitory odors, 6B: 0
[7]
  response to inhibitory odors, 7C: 0
[8]
  response to inhibitory odors, 7A: 0
[9]
  response to inhibitory odors, 2C: 0
[10]
  response to inhibitory odors, 6C: 0
[11]
  response to inhibitory odors, 4A: 0
[12]
  response to inhibitory odors, 4B: 0

## CC1CC(=O)O1 (stereo not drawn) [β-butyrolactone]
[1]
  response to inhibitory odors, 2A: 0
[2]
  response to inhibitory odors, 6A: 0
[3]
  response to inhibitory odors, 2B: 0
[4]; [14]
  response to inhibitory odors, 7B: 0
[5]
  response to inhibitory odors, 4C: 0
[6]
  response to inhibitory odors, 6B: 0
[7]
  response to inhibitory odors, 7C: 0
[8]
  response to inhibitory odors, 7A: 0
[9]
  response to inhibitory odors, 2C: 0
[10]
  response to inhibitory odors, 6C: 0
[11]
  response to inhibitory odors, 4A: 0
